Experimental data taken from US8614201B2 (Janssen Pharmaceutica NV, priority 2009, dated 2013).

Molecular target: Human TRPA1 (Homo sapiens, UniProt O75762)
Test: Alternative TRPA1 Ca2+ fluorometry assay (hTRPA1/TREx-HEK293 cells, Fluo-4, FDSS 6000)
Type: cell-based
Parameters: expressed in transfected cells
Conditions: Fluo-4-AM, agonist 6,11-dihydro-5H-dibenzo[b,e]azepine-10-carboxylic acid methyl ester 25 nM, procedure used for Examples 184, 190 to 192, 194 to 316
How it was run: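 Tetracycline-induced (50 ng/ml, 24 h) hTRPA1/TREx-HEK293 cells were loaded with Fluo-4-AM and probenecid. Compound (1% DMSO final) was added after a 12 s baseline and the Ca2+ signal followed for 14 min, then 25 nM TRPA1 agonist dibenzazepine carboxylic acid methyl ester was applied. Signal is Em540 (ex 488 nm) relative to the first baseline reading.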

Chain of Human TRPA1 (O75762 whole entry): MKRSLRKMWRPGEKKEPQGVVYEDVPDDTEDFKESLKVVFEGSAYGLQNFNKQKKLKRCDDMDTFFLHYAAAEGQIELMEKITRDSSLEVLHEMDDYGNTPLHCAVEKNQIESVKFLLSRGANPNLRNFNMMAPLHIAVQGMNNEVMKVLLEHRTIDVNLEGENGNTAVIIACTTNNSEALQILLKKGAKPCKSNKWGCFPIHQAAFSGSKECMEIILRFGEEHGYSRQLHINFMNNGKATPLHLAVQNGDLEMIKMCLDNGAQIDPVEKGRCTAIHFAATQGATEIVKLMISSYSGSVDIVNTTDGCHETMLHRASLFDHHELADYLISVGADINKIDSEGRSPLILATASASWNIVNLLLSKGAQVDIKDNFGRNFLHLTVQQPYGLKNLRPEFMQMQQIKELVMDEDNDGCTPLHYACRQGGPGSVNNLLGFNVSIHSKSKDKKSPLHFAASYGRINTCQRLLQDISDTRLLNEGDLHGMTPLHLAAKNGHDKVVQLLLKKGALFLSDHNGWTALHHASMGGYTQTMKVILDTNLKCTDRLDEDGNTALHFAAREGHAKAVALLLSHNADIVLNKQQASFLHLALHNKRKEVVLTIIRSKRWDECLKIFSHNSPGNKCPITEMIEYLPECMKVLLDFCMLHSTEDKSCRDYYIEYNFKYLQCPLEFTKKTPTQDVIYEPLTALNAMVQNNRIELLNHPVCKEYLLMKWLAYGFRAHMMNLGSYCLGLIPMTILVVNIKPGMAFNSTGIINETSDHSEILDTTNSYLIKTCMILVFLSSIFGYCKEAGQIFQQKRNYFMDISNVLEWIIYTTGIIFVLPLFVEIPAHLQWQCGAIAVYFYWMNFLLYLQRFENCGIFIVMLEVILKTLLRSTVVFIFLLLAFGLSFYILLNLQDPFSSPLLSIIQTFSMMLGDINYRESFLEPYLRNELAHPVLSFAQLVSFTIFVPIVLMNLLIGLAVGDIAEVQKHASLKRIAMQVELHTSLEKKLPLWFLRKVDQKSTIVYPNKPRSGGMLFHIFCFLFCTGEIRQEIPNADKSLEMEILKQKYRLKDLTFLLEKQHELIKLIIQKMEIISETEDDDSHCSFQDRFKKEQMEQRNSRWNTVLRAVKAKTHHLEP

| Structure (SMILES) | IC50 |
| --- | --- |
| O=C(NCc1cc(-c2ccc(C(F)(F)F)cc2)nc(N2CCN(c3ccccc3F)CC2)n1)[C@@H]1CCCN1S(=O)(=O)c1ccc(F)cc1Cl [Example 252, 1-(2-Chloro-4-fluoro-benzenesulfonyl)-pyrrolidine-2S-carboxylic acid [2-[4-(2-fluoro-phenyl)-piperazin-1-yl]-6-(4-trifluoromethyl-phenyl)-pyrimidin-4-ylmethyl]-amide] | > 10 µM |
| COc1cccc(S(=O)(=O)N2CCC[C@H]2C(=O)NCc2cc(-c3ccc(C(F)(F)F)cc3)nc(N3CCN(c4ccccc4F)CC3)n2)c1 [Example 253, 1-(3-Methoxy-benzenesulfonyl)-pyrrolidine-2S-carboxylic acid [2-[4-(2-fluoro-phenyl)-piperazin-1-yl]-6-(4-trifluoromethyl-phenyl)-pyrimidin-4-ylmethyl]-amide] | > 10 µM |
| O=C(NCc1cc(-c2ccc(C(F)(F)F)cc2)nc(N2CCN(c3ccccc3F)CC2)n1)[C@@H]1CCCN1S(=O)(=O)c1cccc(Cl)c1 [Example 254, 1-(3-Chloro-benzenesulfonyl)-pyrrolidine-2S-carboxylic acid [2-[4-(2-fluoro-phenyl)-piperazin-1-yl]-6-(4-trifluoromethyl-phenyl)-pyrimidin-4-ylmethyl]-amide] | > 10 µM |
| COc1ccc(S(=O)(=O)N2CCC[C@H]2C(=O)NCc2cc(-c3ccc(C(F)(F)F)cc3)nc(N3CCN(c4ccccc4F)CC3)n2)cc1 [Example 255, 1-(4-Methoxy-benzenesulfonyl)-pyrrolidine-2S-carboxylic acid [2-[4-(2-fluoro-phenyl)-piperazin-1-yl]-6-(4-trifluoromethyl-phenyl)-pyrimidin-4-ylmethyl]-amide] | > 10 µM |
| Cc1ccc(F)cc1S(=O)(=O)N1CCC[C@H]1C(=O)NCc1cc(-c2ccc(C(F)(F)F)cc2)nc(N2CCN(c3ccccc3F)CC2)n1 [Example 256, 1-(5-Fluoro-2-methyl-benzenesulfonyl)-pyrrolidine-2-carboxylic acid [2-[4-(2-fluoro-phenyl)-piperazin-1-yl]-6-(4-trifluoromethyl-phenyl)-pyrimidin-4-ylmethyl]-amide] | > 10 µM |
| O=C(NCc1cc(-c2ccc(C(F)(F)F)cc2)nc(N2CCN(c3ccccc3F)CC2)n1)[C@@H]1CCCN1S(=O)(=O)c1cc(Cl)ccc1F [Example 257, 1-(5-Chloro-2-fluoro-benzenesulfonyl)-pyrrolidine-2S-carboxylic acid [2-[4-(2-fluoro-phenyl)-piperazin-1-yl]-6-(4-trifluoromethyl-phenyl)-pyrimidin-4-ylmethyl]-amide] | > 10 µM |
| CC(C)c1ccc(S(=O)(=O)N2CCC[C@H]2C(=O)NCc2cc(-c3ccc(C(F)(F)F)cc3)nc(N3CCN(c4ccccc4F)CC3)n2)cc1 [Example 260, 1-(4-Isopropyl-benzenesulfonyl)-pyrrolidine-2S-carboxylic acid [2-[4-(2-fluoro-phenyl)-piperazin-1-yl]-6-(4-trifluoromethyl-phenyl)-pyrimidin-4-ylmethyl]-amide] | > 10 µM |
| Cc1c(Cl)cccc1S(=O)(=O)N1CCC[C@H]1C(=O)NCc1cc(-c2ccc(C(F)(F)F)cc2)nc(N2CCN(c3ccccc3F)CC2)n1 [Example 262, 1-(3-Chloro-2-methyl-benzenesulfonyl)-pyrrolidine-2S-carboxylic acid [2-[4-(2-fluoro-phenyl)-piperazin-1-yl]-6-(4-trifluoromethyl-phenyl)-pyrimidin-4-ylmethyl]-amide] | > 10 µM |
| CCCc1ccc(S(=O)(=O)N2CCC[C@H]2C(=O)NCc2cc(-c3ccc(C(F)(F)F)cc3)nc(N3CCN(c4ccccc4F)CC3)n2)cc1 [Example 265, 1-(4-Propyl-benzenesulfonyl)-pyrrolidine-2S-carboxylic acid [2-[4-(2-fluoro-phenyl)-piperazin-1-yl]-6-(4-trifluoromethyl-phenyl)-pyrimidin-4-ylmethyl]-amide] | > 10 µM |
| Cc1ccc(C)c(S(=O)(=O)N2CCC[C@H]2C(=O)NCc2cc(-c3ccc(C(F)(F)F)cc3)nc(N3CCN(c4ccccc4F)CC3)n2)c1 [Example 266, 1-(2,5-Dimethyl-benzenesulfonyl)-pyrrolidine-2S-carboxylic acid [2-[4-(2-fluoro-phenyl)-piperazin-1-yl]-6-(4-trifluoromethyl-phenyl)-pyrimidin-4-ylmethyl]-amide] | > 10 µM |
| O=C(NCc1cc(-c2ccc(C(F)(F)F)cc2)nc(N2CCN(c3ccccc3F)CC2)n1)[C@@H]1CCCN1S(=O)(=O)c1ccc(F)cc1F [Example 267, 1-(2,4-Difluoro-benzenesulfonyl)-pyrrolidine-2S-carboxylic acid [2-[4-(2-fluoro-phenyl)-piperazin-1-yl]-6-(4-trifluoromethyl-phenyl)-pyrimidin-4-ylmethyl]-amide] | 7.94 µM |
| O=C(NCc1cc(-c2ccc(C(F)(F)F)cc2)nc(N2CCN(c3ccccc3F)CC2)n1)[C@@H]1CCCN1S(=O)(=O)c1ccccc1Cl [Example 268, 1-(2-Chloro-benzenesulfonyl)-pyrrolidine-2S-carboxylic acid [2-[4-(2-fluoro-phenyl)-piperazin-1-yl]-6-(4-trifluoromethyl-phenyl)-pyrimidin-4-ylmethyl]-amide] | > 10 µM |
| Cc1cccc(S(=O)(=O)N2CCC[C@H]2C(=O)NCc2cc(-c3ccc(C(F)(F)F)cc3)nc(N3CCN(c4ccccc4F)CC3)n2)c1 [Example 271, 1-(Toluene-3-sulfonyl)-pyrrolidine-2S-carboxylic acid [2-[4-(2-fluoro-phenyl)-piperazin-1-yl]-6-(4-trifluoromethyl-phenyl)-pyrimidin-4-ylmethyl]-amide] | > 10 µM |

Molecules with a lower IC50, results first:

| IC50 | Structure (SMILES) |
| --- | --- |
| 3.55 µM | O=C(NCc1cc(-c2ccc(C(F)(F)F)cc2)nc(N2CCN(c3ccccc3F)CC2)n1)[C@@H]1CCCN1S(=O)(=O)c1ccc(F)c(Cl)c1 [Example 259, 1-(3-Chloro-4-fluoro-benzenesulfonyl)-pyrrolidine-2S-carboxylic acid [2-[4-(2-fluoro-phenyl)-piperazin-1-yl]-6-(4-trifluoromethyl-phenyl)-pyrimidin-4-ylmethyl]-amide] |
| 2.69 µM | O=C(NCc1cc(-c2ccc(C(F)(F)F)cc2)nc(N2CCN(c3ccccc3F)CC2)n1)[C@@H]1CCCN1S(=O)(=O)c1ccc(F)c(F)c1F [Example 261, 1-(2,3,4-Trifluoro-benzenesulfonyl)-pyrrolidine-2S-carboxylic acid [2-[4-(2-fluoro-phenyl)-piperazin-1-yl]-6-(4-trifluoromethyl-phenyl)-pyrimidin-4-ylmethyl]-amide] |
| 2.51 µM | O=C(NCc1cc(-c2ccccc2)nc(N2CCN(c3ccccc3F)CC2)n1)[C@@H]1CCCN1S(=O)(=O)c1ccc(F)cc1 [Example 251, 1-(4-Fluoro-benzenesulfonyl)-pyrrolidine-2S-carboxylic acid {2-[4-(2-fluoro-phenyl)-piperazin-1-yl]-6-phenyl-pyrimidin-4-ylmethyl}-amide] |
| 1.59 µM | O=C(NCc1cc(-c2cc(F)cc(F)c2)nc(N2CCN(c3ccccc3F)CC2)n1)[C@@H]1CCCN1S(=O)(=O)c1ccc(F)cc1 [Example 249, 1-(4-Fluoro-benzenesulfonyl)-pyrrolidine-2S-carboxylic acid {6-(3,5-difluoro-phenyl)-2-[4-(2-fluoro-phenyl)-piperazin-1-yl]-pyrimidin-4-ylmethyl}-amide] |
| ~0.933 µM | O=C(NCc1cc(-c2ccc(C(F)(F)F)cc2)nc(N2CCN(c3ccccc3F)CC2)n1)[C@@H]1CCCN1S(=O)(=O)c1cccs1 [Example 264, 1-(Thiophene-2-sulfonyl)-pyrrolidine-2S-carboxylic acid [2-[4-(2-fluoro-phenyl)-piperazin-1-yl]-6-(4-trifluoromethyl-phenyl)-pyrimidin-4-ylmethyl]-amide] |
| 0.851 µM | O=C(NCc1cc(-c2ccc(Cl)cc2Cl)nc(N2CCN(c3ccccc3F)CC2)n1)[C@@H]1CCCN1S(=O)(=O)c1ccc(F)cc1 [Example 250, 1-(4-Fluoro-benzenesulfonyl)-pyrrolidine-2S-carboxylic acid {6-(2,4-dichloro-phenyl)-2-[4-(2-fluoro-phenyl)-piperazin-1-yl]-pyrimidin-4-ylmethyl}-amide] |
| 0.692 µM | O=C(NCc1cc(-c2ccc(C(F)(F)F)cc2)nc(N2CCN(c3ccccc3F)CC2)n1)[C@@H]1CCCN1S(=O)(=O)c1cccc(F)c1 [Example 270, 1-(3-Fluoro-benzenesulfonyl)-pyrrolidine-2S-carboxylic acid [2-[4-(2-fluoro-phenyl)-piperazin-1-yl]-6-(4-trifluoromethyl-phenyl)-pyrimidin-4-ylmethyl]-amide] |
| 0.324 µM | O=C(NCc1cc(-c2ccc(C(F)(F)F)cc2)nc(N2CCN(c3ccccc3F)CC2)n1)[C@@H]1CCCN1S(=O)(=O)c1ccc(F)c(F)c1 [Example 258, 1-(3,4-Difluoro-benzenesulfonyl)-pyrrolidine-2S-carboxylic acid [2-[4-(2-fluoro-phenyl)-piperazin-1-yl]-6-(4-trifluoromethyl-phenyl)-pyrimidin-4-ylmethyl]-amide] |
| 0.229 µM | O=C(NCc1cc(-c2ccc(C(F)(F)F)cc2)nc(N2CCN(c3ccccc3F)CC2)n1)[C@@H]1CCCN1S(=O)(=O)c1ccc(Cl)cc1 [Example 269, 1-(4-Chloro-benzenesulfonyl)-pyrrolidine-2S-carboxylic acid [2-[4-(2-fluoro-phenyl)-piperazin-1-yl]-6-(4-trifluoromethyl-phenyl)-pyrimidin-4-ylmethyl]-amide] |
| 0.191 µM | O=C(NCc1cc(-c2ccc(C(F)(F)F)cc2)nc(N2CCN(c3ccccc3F)CC2)n1)[C@@H]1CCCN1S(=O)(=O)c1ccc(Cl)s1 [Example 263, 1-(5-Chloro-thiophene-2-sulfonyl)-pyrrolidine-2S-carboxylic acid [2-[4-(2-fluoro-phenyl)-piperazin-1-yl]-6-(4-trifluoromethyl-phenyl)-pyrimidin-4-ylmethyl]-amide] |
